Measurements reported in patent publication US4740504A, “Antihyperlipidemic amine boranes” (United States Borax & Chemical Corp., priority 1987, dated 1988).

Assays:
[1] = biological target: T1, ATP dependent citrate lyase (Mus musculus, UniProt Q91V92); assay: Enzymatic studies in vitro: ATP dependent citrate lyase; format: biochemical; settings: at all concentrations tested
T1 construct: from tissue
T1 sequence (Q91V92 1-1091): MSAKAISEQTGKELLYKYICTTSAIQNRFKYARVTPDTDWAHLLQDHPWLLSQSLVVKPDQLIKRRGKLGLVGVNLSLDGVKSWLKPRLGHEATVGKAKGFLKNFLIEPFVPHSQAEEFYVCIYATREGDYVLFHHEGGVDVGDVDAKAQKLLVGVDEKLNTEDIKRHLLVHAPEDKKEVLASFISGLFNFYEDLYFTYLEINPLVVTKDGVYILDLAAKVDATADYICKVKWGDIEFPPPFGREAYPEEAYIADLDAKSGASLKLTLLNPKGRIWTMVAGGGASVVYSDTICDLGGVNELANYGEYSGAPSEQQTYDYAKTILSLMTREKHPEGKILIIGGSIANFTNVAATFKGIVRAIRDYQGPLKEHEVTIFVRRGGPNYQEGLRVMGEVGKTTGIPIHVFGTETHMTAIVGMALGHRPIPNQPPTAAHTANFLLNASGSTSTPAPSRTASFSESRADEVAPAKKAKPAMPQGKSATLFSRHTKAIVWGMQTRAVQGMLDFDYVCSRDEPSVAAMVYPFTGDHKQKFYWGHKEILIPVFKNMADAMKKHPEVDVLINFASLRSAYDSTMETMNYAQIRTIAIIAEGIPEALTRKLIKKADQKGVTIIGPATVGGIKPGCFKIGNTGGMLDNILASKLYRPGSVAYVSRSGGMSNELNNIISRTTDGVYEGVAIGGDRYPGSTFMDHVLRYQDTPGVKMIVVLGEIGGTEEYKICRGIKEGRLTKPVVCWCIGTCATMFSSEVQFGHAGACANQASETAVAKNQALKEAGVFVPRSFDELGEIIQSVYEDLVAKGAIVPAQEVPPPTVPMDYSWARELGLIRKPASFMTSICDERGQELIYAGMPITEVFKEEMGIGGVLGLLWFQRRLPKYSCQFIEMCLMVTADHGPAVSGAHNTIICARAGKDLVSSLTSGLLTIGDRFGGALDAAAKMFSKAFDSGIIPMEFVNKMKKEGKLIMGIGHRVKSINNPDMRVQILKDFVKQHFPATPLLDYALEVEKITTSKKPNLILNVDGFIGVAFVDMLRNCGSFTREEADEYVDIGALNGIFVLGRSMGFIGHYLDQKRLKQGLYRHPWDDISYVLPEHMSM

[2] = biological target: T2, acyl CoA cholesterol acyl transferase (Mus musculus, UniProt O88908); assay: Enzymatic studies in vitro: acyl CoA cholesterol acyl transferase; format: biochemical; settings: read-out: reduction of acyl CoA cholesterol acyl transferase activity
T2 construct: from tissue
T2 sequence (O88908 1-525): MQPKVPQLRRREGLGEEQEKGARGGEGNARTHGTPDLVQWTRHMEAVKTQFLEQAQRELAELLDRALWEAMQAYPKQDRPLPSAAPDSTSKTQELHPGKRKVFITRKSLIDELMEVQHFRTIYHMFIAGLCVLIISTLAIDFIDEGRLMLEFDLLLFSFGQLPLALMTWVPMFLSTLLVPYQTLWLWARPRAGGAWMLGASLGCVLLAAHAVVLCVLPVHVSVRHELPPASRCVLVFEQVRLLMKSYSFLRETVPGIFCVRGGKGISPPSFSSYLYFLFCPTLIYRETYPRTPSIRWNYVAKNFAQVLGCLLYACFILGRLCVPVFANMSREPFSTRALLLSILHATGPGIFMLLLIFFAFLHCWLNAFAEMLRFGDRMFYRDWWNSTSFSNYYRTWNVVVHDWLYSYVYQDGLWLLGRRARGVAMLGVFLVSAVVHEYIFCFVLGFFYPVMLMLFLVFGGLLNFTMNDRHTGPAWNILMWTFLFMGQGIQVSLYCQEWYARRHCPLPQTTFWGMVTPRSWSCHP

HMG CoA reductase = biological target: T3, HMG CoA reductase (Mus musculus, UniProt Q01237); assay: Enzyme activity after in vivo dosing: HMG CoA reductase; settings: maximal reduction at 4 mg/kg/day
T3 construct: from tissue
T3 sequence (Q01237 1-887): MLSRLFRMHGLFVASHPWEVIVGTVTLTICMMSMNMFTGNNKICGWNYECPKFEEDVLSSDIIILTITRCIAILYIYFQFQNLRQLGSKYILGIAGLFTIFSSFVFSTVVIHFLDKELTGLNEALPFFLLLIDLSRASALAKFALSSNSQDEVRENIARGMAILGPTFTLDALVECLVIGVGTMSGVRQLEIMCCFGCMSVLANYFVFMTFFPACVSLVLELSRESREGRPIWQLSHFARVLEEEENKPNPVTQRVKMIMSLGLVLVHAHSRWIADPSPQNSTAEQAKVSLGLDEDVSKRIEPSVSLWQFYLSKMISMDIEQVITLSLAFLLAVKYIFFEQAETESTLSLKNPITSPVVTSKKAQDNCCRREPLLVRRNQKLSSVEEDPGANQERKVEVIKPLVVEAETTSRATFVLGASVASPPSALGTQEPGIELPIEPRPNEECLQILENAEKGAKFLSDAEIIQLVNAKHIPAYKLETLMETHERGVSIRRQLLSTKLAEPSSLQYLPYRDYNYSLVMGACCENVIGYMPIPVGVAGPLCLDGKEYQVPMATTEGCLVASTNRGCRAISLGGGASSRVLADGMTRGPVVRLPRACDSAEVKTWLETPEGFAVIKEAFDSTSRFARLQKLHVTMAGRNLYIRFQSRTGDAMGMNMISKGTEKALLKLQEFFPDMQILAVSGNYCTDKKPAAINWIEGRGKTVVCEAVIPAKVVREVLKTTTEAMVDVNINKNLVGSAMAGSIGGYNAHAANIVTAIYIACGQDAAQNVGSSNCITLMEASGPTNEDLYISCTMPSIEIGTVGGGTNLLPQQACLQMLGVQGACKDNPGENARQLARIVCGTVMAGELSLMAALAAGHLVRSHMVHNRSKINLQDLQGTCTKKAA

male CF1 mice = assay: Hypolipidemic activity in CF1 mice, intraperitoneal dosing (serum cholesterol and triglyceride); format: in vivo; settings: Table III, 4 mg/kg/day i.p., N = 6

For `[BH3-][N+](C)(C)CCCCCCCCCCCCCCCCCC` [I, N-n-Octadecyl-N,N-Dimethylamine Borane], the “reduction of ATP dependent citrate lyase activity” value [1] was “more than 50%”, the inhibition at 100 µM ([2]; 100 μM) was 41% and the inhibition at 200 µM ([2]; 200 μM) was 55%. For the same molecule, the “reduction of HMG CoA reductase activity” value (HMG CoA reductase) was 34% and the “Serum Triglyceride Day 9 (X ± SD)” value (male CF1 mice) was 80 ± 9% of Control.
